What was measured:
Assay type in all cases: cell-based, bovine
[1] = test system: JNK/c-jun; assay: Western blot of JNK pathway activation in BCECs
Procedure: (§1) Cells were allowed to reach-80% confluency in 12-well plates. […] At various time points, plates were taken out of the incubator and kept on ice. Cell monolayers were first washed once with ice-cold PBS before lysis with 250 μI of Pierce RIPA buffer (ThermoFisher Scientific, Rockford, IL) or use 50 mM Tris-HCl (pH 7.6), 150 mM NaCl, 10% Glycerol, 1% NP-40 containing protease/Phosphatase inhibitor cocktail (100×) (Cell signaling, #5872). Lysates were collected and mixed with 4× Bolt LDS Sample Buffer (Novex, Carlsbad, CA) in the presence of Halt protease inhibitors and phosphatase inhibitor cocktail (ThermoFisher scientific, #NP0007). The samples were subjected to SDS-PAGE (Bolt 4-12% Bis-Tris Plus, Invitrogen) using Bolt MES SDS running buffer or NuPAGE 3-8% Tris-Acetate gel using Tris-Acetate SDS running buffer (Novex). HUVECs (passage 6-8) were plated in EBM-2 basal medium (Lonza) with 0.2% FBS. Following overnight culture, cells were serum-starved in EBM-2 medium for 4 hrs prior to treatment with 50 ng/ml of VEGF165 or vehicle controls for various lengths. Equal amounts of protein lysates were analyzed by SDS-PAGE and blotted with the indicated antibodies. Proteins were transferred using Tris-Glycine buffer with 20% Methanol (Proteonomics grade) (Apex BioResearch Products). Membranes were first incubated with 5% milk in TBST, pH 7.6 (TEKnova, Hollister, CA), followed by blotting with primary and secondary antibodies. ECL anti-rabbit IgG, horseradish peroxidase linked whole antibody from donkey or sheep anti-mouse were obtained from GE Healthcare (UK limited). SuperSignal West Dura Extended Duration substrate was from ThermoFisher Scientific. In some cases, the same PVDF membranes were stripped by 8-min incubation in the Restore Plus Western Blot Stripping Buffer (ThermoFisher Scientific) to show total specific protein expression, followed by second stripping for (3-actin expression.

[2] = test system: VEGFR2; assay: VEGFR2 western blot in BCECs (molecular mass, phosphorylation, PNGase F)
Procedure: Glycerol-free PNGase F was obtained from New England Biolabs (Ipswich, MA). Briefly, BCECs were lysed with NP-40 containing proteinase inhibitors (Thermo Scientific, Waltham, MA). Lysates were cleared at 4° C. at 5000 g for 25 mins. Total protein content was measured using Pierce BCA protein assay kit (Thermo Scientific). 20 mg of protein was mixed with 10× denaturing buffer and H2O to a total volume of […]. Glycoproteins were denatured at 100° C. for 10 mins, followed by adding Glycobuffer and PNGase F. The reaction was carried out at 37° C. for 2 hr.
as §1, with “Cell monolayers were first washed once with ice-cold PBS before lysis with 250 μI of Pierce RIPA buffer (ThermoFisher Scientific, Rockford, IL) or use 50 mM Tris-HCl (pH 7.6), 150 mM NaCl, 10% Glycerol, 1% NP-40 containing protease/Phosphatase inhibitor cocktail (100×) (Cell signaling, #5872).” left out, “The samples were subjected to SDS-PAGE (Bolt 4-12% Bis-Tris Plus, Invitrogen) using Bolt MES SDS running buffer or NuPAGE 3-8% Tris-Acetate gel using Tris-Acetate SDS running buffer (Novex).” left out

[3] = test system: ERK, AKT, mTOR, CREB, ACC and eNOS; assay: Western blot of signal transduction pathways in BCECs
Procedure: as §1, with “Cell monolayers were first washed once with ice-cold PBS before lysis with 250 μI of Pierce RIPA buffer (ThermoFisher Scientific, Rockford, IL) or use 50 mM Tris-HCl (pH 7.6), 150 mM NaCl, 10% Glycerol, 1% NP-40 containing protease/Phosphatase inhibitor cocktail (100×) (Cell signaling, #5872).” left out, “The samples were subjected to SDS-PAGE (Bolt 4-12% Bis-Tris Plus, Invitrogen) using Bolt MES SDS running buffer or NuPAGE 3-8% Tris-Acetate gel using Tris-Acetate SDS running buffer (Novex).” left out

[4] = test system: BCEC confluent monolayers; assay: BCEC scratch assay
Procedure: BCECs (passage 6-10) and HUVEC (passage 6-8) were used in this assay. Cells were grown until about 80% confluency in 6-well plates, washed twice with PBS and then starved in serum-free DMEM (low Glucose, Hyclone) for 5 hrs before making a “scratch” using 1 ml tip. Cell monolayers were briefly washed once with serum-free media, followed by various treatments in media containing 1% FBS. 48 hrs later, the assay was stopped by adding 2 ml 4% paraformaldehyde. 20 min later, fixed cells were stained with 1 ml Crystal Violet (Sigma). Plates were washed gently under the running tap water and air-dried before taking pictures. Images were acquired by ZEISS Discovery […] microscopy equipped with […] camera. Quantification of wound closure was done using AxioVision LE Rel.4.4 software. Six images were taken for each sample and six measurements (in pixel) were made on each image using AxioVision LE Re1.4.4 software.

SMILES: O=C1N[C@@H]2[C@@H](O)[C@@H](O)[C@H](O)[C@@H](CO)N2C1=O [Kif, Kifunensine, reference compound]
- activation of the JNK pathway by glycosylation inhibitors ([1]; 40 μM, BCECs, FIG. 7E): able to activate the JNK pathway
- VEGFR2 molecular mass on SDS-PAGE after glycosylation inhibitors ([2]; 24 hours): reduction in VEGFR2 molecular mass
- activation of ERK and AKT in BCECs by glycosylation inhibitors ([3]; 40 μM, FIG. 7E): significantly activate ERK and AKT
- gap closing in BCEC scratch assay by glycosylation inhibitors ([4]; over 48 hours relative to control): significant activity

SMILES: N[C@H](C=O)[C@@H](O)[C@H](O)[C@H](O)CO [ManN, 2-Amino-2-deoxy-D-mannose]
- activation of JNK and downstream c-Jun ([1]; BCECs switched to media without growth factors, 4 μM-4 mM, four hours): significantly activated by ManN in a dose-dependent manner
- concentration from which VEGFR2 apparent molecular mass shifts ([2]; BCECs and BRECs): ≥ 40 µM
- duration of ManN effects on protein mass in the absence of exogenous ManN ([2]; BCECs, FIG. 4E): at least 8 hours
- protein mass of av integrin, Neuropilin-1, VE-cadherin and bFGFR1 ([2]; ManN in BCEC): affected as well
- VEGFR2 phosphorylation in response to VEGF ([2]; ManN pre-treated cells): decreased
- reversibility of VEGFR2 molecular mass change after ManN removal ([2]; after 24 hours): completely reverse
- ligand-independent VEGFR2 activation ([2]; after ManN addition in BCECs): No ligand-independent VEGFR2 activation
- dependence of ManN effects on VEGFR2 signaling ([2]; experiments with axitinib): not dependent on VEGFR2 signaling
- specificity of VEGFR2 molecular mass shift ([2]; hexosamines and derivatives at 40 μM, 24 hours): unique to ManN among hexosamines and their derivatives
- extent of loss of VEGFR2 glycosylation (PNGase F treatment) ([2]; μM concentrations of ManN): not all the glycosylation on VEGFR2 was abolished
- activation of eNOS and ACC ([3]; 40 μM ManN, within 10-30 minutes): significantly activated
- activation of ERK, AKT, mTOR and CREB ([3]; 40 μM, BCECs): activated
- time to stimulation of ERK, AKT and CREB after adding ManN ([3]; 40 μM, BCECs): 10 to 30 min
- activation of ERK, AKT and CREB with ManN plus VEGF vs either alone ([3]; both ManN and VEGF present): enhancement in activation
- closure of the scratched area vs control ([4]; 40 μM ManN or 50 ng/ml of VEGF, after 48 hours): significantly accelerated BCEC migration and/or proliferation
- additivity of ManN and VEGF in scratch assay ([4]; both ManN and VEGF): additivity was observed

Source: US20250275993A1, “GLYCOSYLATION INHIBITORS AS THERAPEUTICS FOR STROKE” (The Regents of the University of California, priority 2022, published 2025)
